One may read the IC50 as the concentration at which inhibition is half-maximal. Low readings indicate inhibition by little substance, high ones a need for much substance. By Ki is commonly meant a dissociation constant, usually derived from enzyme kinetics or from competition with a known ligand. As a reminder, the EC50 is the concentration needed to bring the measured effect to its halfway point. Higher therefore signals a less potent agent. As usually defined, the Km is the substrate concentration at which the rate is half of its maximum. As a reminder, the kcat is the maximal rate divided by the concentration of active sites.

The values that follow come from publication PMC6948153 (ACS chemical biology, 2019).

The target in data set [1] is T1, RhlI (Pseudomonas aeruginosa, UniProt P54291). The settings on record: N-butyryl L-homoserine lactone even at 1 mM; ref 21 (Parsek et al.); cited from earlier work.
T1 sequence (P54291 whole entry): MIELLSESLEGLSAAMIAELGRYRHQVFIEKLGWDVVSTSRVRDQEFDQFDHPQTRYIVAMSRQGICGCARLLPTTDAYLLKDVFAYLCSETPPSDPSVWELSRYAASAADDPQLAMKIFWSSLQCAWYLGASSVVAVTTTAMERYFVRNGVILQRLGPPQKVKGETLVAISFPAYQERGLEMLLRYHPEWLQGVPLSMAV
Data set [2] addresses T1, RhlI. Briefly: RhlI enzymatic assay. The settings on record: for effect on RhlI activity (inhibition / activation): initial rate with increasing concentrations of compound. The data set is classed as biochemical.
For data set [3], the target named is T1, RhlI. Briefly: Inhibition of RhlI by inert alkyl-ACP / alkyl-CoA substrate analogs. The data set is classed as biochemical. The settings on record: for effect of preincubation of RhlI with inhibitor on % inhibition or IC50: inhibition neither slow-binding nor time-dependent; for inhibition mode: substrate-velocity measurements at different alkyl-ACP concentrations.

The next data set deals with tag-free RhlI (Pseudomonas aeruginosa, UniProt P54291). Briefly: Km and IC50 with tag-free RhlI. The data set is classed as biochemical.
tag-free RhlI, sequence (P54291 whole entry): as above
The target of data set [4] is T1, RhlI. Briefly: Substrate kinetics of acyl-ACPs with RhlI. In kind it is biochemical. The settings on record: acyl-ACP substrate with RhlI.
Setting [5] is: inert substrate analog with RhlI.

Entries after “also recorded” stand apart in the source; their conditions may differ. Read-outs that look alike come from different tables or passages of the source.

As for `CSC[C@H]1O[C@@H](n2cnc3c(N)ncnc32)[C@H](O)[C@@H]1O` [MTA], the “inhibition of RhlI” value at RhlI [1] is recorded as “weak inhibitors”.

Turning to `CCCCCCCCCCCC(=O)N[C@@H]1CCSC1=O` [compound 60, C12-D-homocysteine thiolactone], the IC50 against RhlI [2] stood at 11 ± 1 µM. In addition, on RhlI [2] (IC50 of 60 versus IC50 of 46), the “fold lower IC50 than L-thiolactone counterpart compound 46” value is “about 34 fold”.

The compound `CCCCCCCCSCCNC(=O)CCNC(=O)[C@H](O)C(C)(C)COP(=O)(O)OP(=O)(O)OC[C@H]1O[C@@H](n2cnc3c(N)ncnc32)[C@H](O)[C@@H]1OP(=O)(O)O` [compound 91, octyl-CoA] returned an IC50 at RhlI [3] of 5.1 ± 0.8 µM.

With butyl-ACP [compound 85], the “IC50 with untagged RhlI compared with MBP-tagged enzyme” value in the data set with tag-free RhlI was “almost identical”. In the data set with RhlI [3] (setting [5]), this compound registered a half-maximal inhibitory concentration (IC50) of 9.9 ± 4 µM and a Ki of 15.9 ± 0.9 µM. Also, in the data set with RhlI [3], the “effect of preincubation of RhlI with inhibitor on % inhibition or IC50” value is listed as “did not significantly alter” and the inhibition mode result is given as “noncompetitive”.

Compound `CCCCCC(=O)CC(=O)N[C@@H]1CCOC1=O` [compound 35, 3-oxoC8-D-HSL] gave an IC50 on RhlI [2] of 282 ± 34 µM.

Turning to `N[C@@H]1CCSC1=O` [compound 74, D-HCTL], the “effect on RhlI activity (inhibition / activation)” value (shortened to “effect … (inhibition / activation)”) on RhlI [2] is “None of these compounds or combinations had any effect on RhlI activity”.

`CCCCCCCCCC(=O)O` [compound 78, decanoic acid]: the “effect … (inhibition / activation)” value at RhlI [2] is listed as “None of these compounds or combinations had any effect on RhlI activity”.

With `CCCCCC(=O)CC(=O)N[C@@H]1CCSC1=O` [compound 62, 3-oxoC8-D-HCTL], at RhlI [2], the EC50 came out at 855 ± 74 µM and the “effect … (inhibition / activation)” value is reported as “activated”.

For the compound `N[C@H]1CCOC1=O` [compound 71, L-HSL], the “effect … (inhibition / activation)” value at RhlI [2] is reported as “None of these compounds or combinations had any effect on RhlI activity”.

As for `CCCCSCCNC(=O)CCNC(=O)[C@H](O)C(C)(C)COP(=O)(O)OP(=O)(O)OC[C@H]1O[C@@H](n2cnc3c(N)ncnc32)[C@H](O)[C@@H]1OP(=O)(O)O` [compound 89, butyl-CoA], the “inhibition of RhlI” value at RhlI [3] (up to 1 mM) is recorded as “not inhibiting”.

As for `CCCC(=O)N[C@@H]1CCOC1=O` [compound 5, C4-D-HSL], on RhlI [2], the IC50 came out at 688 ± 91 µM and the “effect … (inhibition / activation)” value is recorded as “decreased the rate”.

In the case of “holo-ACP: holo acyl carrier protein, product of the RhlI reaction”, the “inhibition of RhlI” value with RhlI [1] was “weak inhibitors”.

With decanoyl-ACP [compound 83], in the data set with RhlI [4], the Km is 0.14 ± 0.04 µM and the kcat was determined as 0.00633 ± 0.00017 s⁻¹.

`CCCCCCSCCNC(=O)CCNC(=O)[C@H](O)C(C)(C)COP(=O)(O)OP(=O)(O)OC[C@H]1O[C@@H](n2cnc3c(N)ncnc32)[C@H](O)[C@@H]1OP(=O)(O)O` [compound 90, hexyl-CoA]: at RhlI [3], the IC50 came out at 70 ± 10 µM.

As for butyryl-ACP [compound 80], in the data set with tag-free RhlI, the “Km with untagged RhlI compared with MBP-tagged enzyme” value was “almost identical”. In addition, in the data set with RhlI [4], the Km is 7.3 ± 2.1 µM and the kcat came out at 0.0433 ± 0.005 s⁻¹. For the same compound, the Km with RhlI [4] (listed as C4-ACP) is 7 µM.

Consider `CCCCCC(=O)O` [compound 76, hexanoic acid], for which the “effect … (inhibition / activation)” value on RhlI [2] was “None of these compounds or combinations had any effect on RhlI activity”.

Turning to `CCCCCCCCCCCC(=O)N[C@H]1CCSC1=O` [compound 46, C12-L-HCTL], inhibition on RhlI [2] was half-maximal at 387 ± 89 µM (IC50).

In turn, `CCCC(=O)CC(=O)N[C@@H]1CCOC1=O` [compound 34, 3-oxoC6-D-HSL] came in with an EC50 at RhlI [2] of 224 ± 55 µM.

For `CCCC(=O)N[C@H]1CCSC1=O` [compound 8, C4-L-HCTL], the “effect … (inhibition / activation)” value at RhlI [2] was “failed to inhibit; also recorded: did not inhibit”.

In the case of `CCCCCCCCCC(=O)CC(=O)N[C@H]1CCSC1=O` [compound 55, 3-oxoC12-L-HCTL], it took 621 ± 50 µM to reach half-maximal inhibition against RhlI [2] (IC50).

As for hexanoyl-ACP [compound 81], in the data set with RhlI [4], the Km came to 1.2 ± 0.2 µM and the kcat stood at 0.0143 ± 0.00033 s⁻¹.

Consider `O=C(CCCc1ccccc1)N[C@@H]1CCOC1=O` [compound 31, 4-phenylbutanoyl-D-HSL], for which the IC50 at RhlI [2] turned out to be 20 ± 10 µM.

Turning to `CCCCCCCCCC(=O)CC(=O)N[C@@H]1CCSC1=O` [compound 64, 3-oxoC12-D-HCTL], on RhlI [2], the IC50 is 127 ± 70 µM and the “effect … (inhibition / activation)” value was “inhibited”.

dodecanoyl-ACP [compound 84]: the Km in the data set with RhlI [4] was 0.26 ± 0.03 µM; in the data set with RhlI [4] (listed as C12-ACP), approximately 0.2 µM. In addition, the kcat with RhlI [4] was found to be 0.01 ± 0.00017 s⁻¹.

Turning to hexyl-ACP [compound 86], in the data set with RhlI [3] (setting [5]), half-maximal inhibition (IC50) was put at 0.7 ± 0.4 µM and the Ki turned out to be 10.6 ± 1.1 µM. In the data set with RhlI [3], the inhibition mode result is recorded as “noncompetitive”.

On to `CCCC(=O)N[C@H]1CCOC1=O` [compound 1, N-butyryl-L-homoserine lactone], for which the “inhibition of RhlI” value on RhlI [1] is given as “no inhibition”. For the same compound, the “effect … (inhibition / activation)” value at RhlI [2] is “did not inhibit”.

Take `CCCC(=O)CC(=O)N[C@@H]1CCSC1=O` [compound 61, 3-oxoC6-D-HCTL]: on RhlI [2], it took 1510 ± 110 µM to reach a half-maximal effect (EC50) and the “effect … (inhibition / activation)” value is given as “activated”.

Turning to `CCCC(=O)O` [compound 75, butyric acid], the “effect … (inhibition / activation)” value at RhlI [2] is “None of these compounds or combinations had any effect on RhlI activity”.

As to `CCCCCCCCCCCC(=O)O` [compound 79, dodecanoic acid], on RhlI [2], the “effect … (inhibition / activation)” value is recorded as “None of these compounds or combinations had any effect on RhlI activity”.

Consider octanoyl-ACP [compound 82], for which the “Km with untagged RhlI compared with MBP-tagged enzyme” value in the data set with tag-free RhlI is “almost identical”. Also, in the data set with RhlI [4], the Km is 0.4 ± 0.06 µM and the kcat is 0.01 ± 0.00033 s⁻¹.

Turning to `N[C@H]1CCSC1=O` [compound 73, L-HCTL], the “effect … (inhibition / activation)” value on RhlI [2] is listed as “None of these compounds or combinations had any effect on RhlI activity”.

In the data set with RhlI [3] (setting [5]), decyl-ACP [compound 88] showed an IC50 of 0.1 ± 0.04 µM and a Ki of 4.8 ± 0.3 µM. Further, the inhibition mode result with RhlI [3] is “noncompetitive”.

Regarding `CCCCCCCC(=O)CC(=O)N[C@@H]1CCSC1=O` [compound 63, 3-oxoC10-D-HCTL], on RhlI [2], the EC50 was determined as 57 ± 23 µM and the “effect … (inhibition / activation)” value is on record as “activated”.

Turning to octyl-ACP [compound 87], the “IC50 with untagged RhlI compared with MBP-tagged enzyme” value with tag-free RhlI is “almost identical”. In the data set with RhlI [3] (setting [5]), this compound came in with an IC50 of 0.06 ± 0.02 µM and a Ki of 6.5 ± 0.7 µM. For the same compound, in the data set with RhlI [3], the “effect of preincubation of RhlI with inhibitor on % inhibition or IC50” value was “did not significantly alter” and the inhibition mode result was “noncompetitive”.

Turning to `N[C@@H]1CCOC1=O` [compound 72, D-HSL], the “effect … (inhibition / activation)” value on RhlI [2] is “None of these compounds or combinations had any effect on RhlI activity”.
